Where no end group is shown, it is not given here.
Assays:
[1] = molecular target: T1, PXY extracellular domain (30–647) (Arabidopsis thaliana, UniProt Q9FII5); experiment: ITC of purified PXY extracellular domain vs. CLE41/44; details: binding affinity (range), isolated PXY ectodomain; range joins own value (Fig EV1B) and ref 25
T1 construct: PXY/TDR (30–647); azurocidin signal peptide (N); made in house; host or cells: Spodoptera frugiperda Sf9 insect cells (baculovirus, secreted)
T1 sequence (Q9FII5 30-647): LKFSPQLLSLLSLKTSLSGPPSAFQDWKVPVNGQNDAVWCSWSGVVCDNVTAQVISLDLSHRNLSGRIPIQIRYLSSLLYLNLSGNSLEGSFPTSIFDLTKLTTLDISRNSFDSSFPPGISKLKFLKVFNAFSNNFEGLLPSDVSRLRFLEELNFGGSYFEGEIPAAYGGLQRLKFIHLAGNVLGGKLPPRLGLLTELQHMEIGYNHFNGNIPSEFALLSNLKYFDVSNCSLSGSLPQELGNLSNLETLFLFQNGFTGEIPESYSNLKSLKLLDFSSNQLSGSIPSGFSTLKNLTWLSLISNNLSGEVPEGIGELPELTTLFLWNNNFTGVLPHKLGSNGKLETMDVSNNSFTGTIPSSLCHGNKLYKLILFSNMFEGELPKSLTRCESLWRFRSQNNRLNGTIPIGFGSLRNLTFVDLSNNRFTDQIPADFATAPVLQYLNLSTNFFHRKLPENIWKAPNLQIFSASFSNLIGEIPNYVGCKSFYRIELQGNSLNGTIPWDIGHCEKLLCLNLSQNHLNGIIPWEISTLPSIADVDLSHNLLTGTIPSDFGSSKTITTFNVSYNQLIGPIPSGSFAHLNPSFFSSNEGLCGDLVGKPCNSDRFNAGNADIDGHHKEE

[2] = system: Arabidopsis Col-0 seedlings (primary root); experiment: Root growth assay, wild type (Col-0); format: in vivo, Arabidopsis thaliana; details: 50 nM peptide, 9-day-old seedlings, primary root length, n ≥ 12
Description: Plant tissue culture, plant transformation, and common molecular biology procedures such as genomic DNA isolation, genotyping, sequencing, and peptide or inhibitor treatments were performed according to standard procedures as previously described 9, 19, 44, 65.
All mutant and transgenic lines were in the Arabidopsis Columbia‐0 (Col‐0) background. The following previously described mutant alleles were used throughout: brx‐2, bam3‐2, brx‐2 bam3, clv2‐1, serk1‐1 and serk1‐3, serk2‐1, serk3‐1, serk4‐1, serk5‐1 9, 47, 59, 66, 67, 68. The crn loss‐of‐function mutant allele (crn‐10) carries a single nucleotide insertion in front of the 7th codon, which leads to a frameshift and three subsequent premature stop codons after amino acid 10 52.

[3] = system: crn seedlings expressing CRN-CITRINE under control of the BAM3 promoter; experiment: Root growth, BAM3::CRN-CITRINE in crn (protophloem-specific CRN); format: in vivo, Arabidopsis thaliana; details: 50 nM peptide, 7-day-old seedlings
Text: Figure 3 Protophloem‐specific CRN action in the root meristem • A Expression pattern of BAM3, CLV2, and CRN‐CITRINE fusion proteins (green fluorescence) under control of their native promoters (blue fluorescence: calcofluor white cell wall staining) (confocal microscopy). Asterisks mark developing protophloem sieve element strands. • B, C Expression pattern of CRN‐CITRINE fusion protein under control of the BAM3 promoter in Col‐0 (B) or crn (C) background. Arrowhead in (C) highlights plasma membrane‐localized CRN. • D Representative 7‐day‐old crn seedlings expressing CRN‐CITRINE fusion protein under control of the BAM3 promoter grown on mock or CLE45. • E Primary root length of 7‐day‐old seedlings of indicated genotypes, grown on mock or 50 nM of selected CLE peptides. Differences as compared to ^a: Col‐0 or ^b: crn are not statistically significant unless indicated (Student's t‐test); *P < 0.05; **P < 0.01; ***P < 0.001; mean ± s.e.m. • F Expression of nuclear localized, fluorescent VENUS protein under control of the CVP2 promoter (which specifically marks developing protophloem sieve elements), 24 h after transfer from standard media to 50 nM of selected CLE peptides. Arrowheads indicate the cells closest to the tip in which CVP2 expression was still detectable. […]

Sequence	Kd [1] [nM]	impact on root growth [2]	sensitivity after protophloem-specific CRN expression in crn [3]
HEVPSGPNPISN [CLE41/44]	10 to 30	–	–
RKVPRGPDPIHN [CLE26, CLE26: …]	–	significant, reproducible impact on root growth	restored sensitivity

Reference: article PMC5538625, “Perception of root‐active CLE peptides requires CORYNE function in the phloem vasculature” (EMBO Reports, 2017)
